In one test the test system is Musca domestica. The experiment in a line: Insecticidal activity against Musca domestica (house fly) after 24 hr. Type of test: functional.
The subject of a further test is Rhyzopertha dominica. The experiment in a line: Insecticidal activity against Rhyzopertha dominica after 24 hr. Type of test: functional.

Regarding `CCC(C)(O)C#N` (stereo unspecified) [METHYLETHYL KETONE CYANOHYDRIN], the figures for the LC50 in the test on Musca domestica and in the test on Rhyzopertha dominica were 0.91 µM and 4.14 µM, respectively.

For the molecule `CC(O)(C#N)C1CC1` (stereo unspecified) [CYCLOPROPYLMETHYLKETONE CYANOHYDRIN], the LC50 in the test on Musca domestica came out at 1.35 µM; with Rhyzopertha dominica, 3.6 µM.

Turning to `C=CC(C)(O)C#N` (stereo unspecified) [METHYLVINYL KETONE CYANOHYDRIN], the figures for the LC50 with Musca domestica and with Rhyzopertha dominica were 2.27 µM and 9.47 µM, respectively.

In the case of `C=CC(C#N)OC(=O)CC` (stereo unspecified) [1-CYANOALLYL PROPIONATE], the LC50 was 4.74 µM with Musca domestica and 5.03 µM in the test with Rhyzopertha dominica.

With `C=CC(O)C#N` (stereo unspecified), the LC50 in the test on Musca domestica stood at 0.67 µM; with Rhyzopertha dominica it was 4.45 µM.

On to `C=CC(C#N)OC(=O)C(C)(C)C` (stereo unspecified) [1-CYANOALLYL PIVALATE], for which the figures for the 50% lethal concentration (LC50) in the test on Musca domestica and with Rhyzopertha dominica were 8.19 µM and 14.4 µM, respectively.

In the case of `COP(=O)(OC)OC=C(Cl)Cl` [DICHLORVOS], the results for the LC50 with Musca domestica and in the test with Rhyzopertha dominica were 0.05 µM and 1.31 µM, respectively.

For the molecule `CC(C)(O)C#N` [DIMETHYLKETONE CYANOHYDRIN], the LC50 in the test on Musca domestica was 0.82 µM; in the test with Rhyzopertha dominica, 4.7 µM.

For the molecule `CC(O)(C#N)CF` (stereo unspecified), the LC50 with Musca domestica was 0.87 µM; in the test on Rhyzopertha dominica, 3.2 µM.

`CC=C(Cl)Cl` [DICHLOROPROPENE]: the LC50 worked out at 8.11 µM in the test on Musca domestica and 49.3 µM in the test on Rhyzopertha dominica.

As for `N#CC(O)C1CC1` (stereo unspecified) [CYCLOPROPYLCARBOXALDEHYDE], the LC50 came to 1.54 µM in the test with Musca domestica and 4.12 µM with Rhyzopertha dominica.

For the molecule `C=CC(C#N)OC(C)=O` (stereo unspecified) [1-CYANOALLYL ACETATE], the figures for the median lethal concentration (LC50) in the test with Musca domestica and with Rhyzopertha dominica were 2.08 µM and 2.96 µM, respectively.

For the molecule `C=CC(C#N)OC` (stereo unspecified), the LC50 in the test on Musca domestica worked out at 4.22 µM; with Rhyzopertha dominica it was 9.06 µM.

(Values after ChEMBL document CHEMBL3046119, “QSAR evaluation of cyanohydrins' fumigation toxicity to house fly (Musca domestica) and lesser grain borer (Rhyzopertha dominica)” (2002).)
